Source: article PMC3874184 (Nucleic Acids Research, 2013)

How the values were obtained:
scTrm10_84 = biological target: T1, scTrm10_84 (Saccharomyces cerevisiae, UniProt Q12400); assay: X-ray crystal structure, […] Å; details: SAM-binding pocket in C-terminal trefoil knot; 1:3 protein:SAH
T1 sequence (Q12400 84-276): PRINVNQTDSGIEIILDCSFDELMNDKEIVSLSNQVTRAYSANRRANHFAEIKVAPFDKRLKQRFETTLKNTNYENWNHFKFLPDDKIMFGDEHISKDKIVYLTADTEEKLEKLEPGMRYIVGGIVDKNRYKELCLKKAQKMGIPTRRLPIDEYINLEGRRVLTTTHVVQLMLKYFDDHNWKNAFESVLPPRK

spTrm10 (spTrm10_FL) [1] = biological target: T2, spTrm10 (spTrm10_FL) (Schizosaccharomyces pombe, UniProt O14214); assay: X-ray crystal structure, […] Å; details: SAM-binding pocket in C-terminal trefoil knot; 1:3 protein:SAH
T2 sequence (O14214 1-304): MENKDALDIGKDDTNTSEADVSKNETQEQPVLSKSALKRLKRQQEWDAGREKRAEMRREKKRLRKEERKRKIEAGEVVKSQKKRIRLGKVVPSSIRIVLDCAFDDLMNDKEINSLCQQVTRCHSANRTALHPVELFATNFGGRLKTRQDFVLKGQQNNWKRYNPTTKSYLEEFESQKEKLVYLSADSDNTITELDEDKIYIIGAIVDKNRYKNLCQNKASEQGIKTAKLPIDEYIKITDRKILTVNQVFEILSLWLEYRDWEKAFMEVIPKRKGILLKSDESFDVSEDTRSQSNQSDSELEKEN

spTrm10 (spTrm10_FL) [2] = biological target: T2, spTrm10 (spTrm10_FL); assay: biochemical
spTrm10 (spTrm10_FL) [3] = biological target: spTrm10 (spTrm10_FL) (Schizosaccharomyces pombe, UniProt O14214, N209A); assay: biochemical
Chain of spTrm10 (spTrm10_FL) (Schizosaccharomyces pombe, UniProt O14214, N209A) (O14214 whole entry N209A): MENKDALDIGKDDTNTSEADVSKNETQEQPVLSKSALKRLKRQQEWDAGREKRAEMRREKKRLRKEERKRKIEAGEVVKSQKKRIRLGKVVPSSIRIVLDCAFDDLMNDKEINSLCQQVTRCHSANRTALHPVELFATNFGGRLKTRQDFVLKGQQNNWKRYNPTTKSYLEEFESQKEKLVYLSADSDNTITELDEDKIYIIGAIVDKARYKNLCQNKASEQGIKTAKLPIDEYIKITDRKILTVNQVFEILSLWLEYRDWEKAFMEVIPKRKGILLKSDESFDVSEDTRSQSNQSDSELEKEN

SMILES	X-ray crystal structure, 1.76 Å (scTrm10_84)	X-ray crystal structure, 2.04 Å (spTrm10 (spTrm10_FL) [1])	Kd (spTrm10 (spTrm10_FL) [2])	Kd (spTrm10 (spTrm10_FL) [3])
Nc1ncnc2c1ncn2[C@@H]1O[C@H](CSCC[C@H](N)C(=O)O)[C@@H](O)[C@H]1O [SAH]	4JWJ for scTrm10_84-SAH	4JWH for spTrm10-FL-SAH	–	–
C[S+](CC[C@H](N)C(=O)O)C[C@H]1O[C@@H](n2cnc3c(N)ncnc32)[C@H](O)[C@@H]1O (stereo partly shown) [SAM]	–	–	4.46 µM	83.3 µM
